How the values were obtained:
[1] = test system: BaF3; test: Antiproliferative activity against mouse BAF3 cells expressing wild type Bcr-Abl; assay type: functional, cell-based
[2] = test system: Tyrosine-protein kinase ABL1 (Homo sapiens), P00519 [F317I]; test: Inhibition of phosphorylated ABL1 F317I mutant at 10 uM; settings: values are per cent of control
[3] = test system: Tyrosine-protein kinase ABL1 (Homo sapiens), P00519 [M351T]; test: Inhibition of phosphorylated ABL1 M351T mutant at 10 uM; settings: values are per cent of control
[4] = test system: Tyrosine-protein kinase ABL1 (Homo sapiens), P00519 [Q252H]; test: Inhibition of phosphorylated ABL1 Q252H mutant at 10 uM; settings: values are per cent of control
[5] = test system: Tyrosine-protein kinase ABL1 (Homo sapiens), P00519 [T315I]; test: Inhibition of phosphorylated ABL1 T315I mutant at 10 uM; settings: values are per cent of control
[6] = target: Atypical kinase COQ8A, mitochondrial (Homo sapiens) (UniProt Q8NI60); test: Inhibition of ADCK3 at 10 uM; settings: values are per cent of control
[7] = target: Cyclin-dependent kinase-like 1 (Homo sapiens) (UniProt Q00532); test: Inhibition of CDKL1 at 10 uM; settings: values are per cent of control
Chain of Cyclin-dependent kinase-like 1 (Homo sapiens) (Q00532 whole entry): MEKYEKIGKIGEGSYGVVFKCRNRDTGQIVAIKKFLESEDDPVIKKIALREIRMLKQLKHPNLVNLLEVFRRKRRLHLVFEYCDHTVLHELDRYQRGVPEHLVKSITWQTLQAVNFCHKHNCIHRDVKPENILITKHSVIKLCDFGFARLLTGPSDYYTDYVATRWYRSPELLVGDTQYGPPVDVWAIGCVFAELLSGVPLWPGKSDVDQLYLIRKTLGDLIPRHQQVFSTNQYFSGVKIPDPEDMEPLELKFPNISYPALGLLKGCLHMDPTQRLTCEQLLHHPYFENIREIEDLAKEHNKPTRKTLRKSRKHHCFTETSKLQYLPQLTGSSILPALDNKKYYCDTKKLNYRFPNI

[8] = target: Casein kinase II subunit alpha (Homo sapiens) (UniProt P68400); test: Inhibition of CSNK2A1 at 10 uM; settings: values are per cent of control
[9] = target: Dual specificity tyrosine-phosphorylation-regulated kinase 1A (Homo sapiens) (UniProt Q13627); test: Inhibition of DYRK1A at 10 uM; settings: values are per cent of control
[10] = target: Ephrin type-B receptor 3 (Homo sapiens) (UniProt P54753); test: Inhibition of EPHB3 at 10 uM; settings: values are per cent of control
[11] = target: Focal adhesion kinase 1 (Homo sapiens) (UniProt Q05397); test: Inhibition of FAK at 10 uM; settings: values are per cent of control
[12] = test system: Receptor-type tyrosine-protein kinase FLT3 (Homo sapiens), P36888 [N841I]; test: Inhibition of FLT3 N841I mutant at 10 uM; settings: values are per cent of control
[13] = target: Rhodopsin kinase GRK1 (Homo sapiens) (UniProt Q15835); test: Inhibition of GRK1 at 10 uM; settings: values are per cent of control
[14] = target: Serine/threonine-protein kinase ICK (Homo sapiens) (UniProt Q9UPZ9); test: Inhibition of ICK at 10 uM; settings: values are per cent of control
[15] = target: Insulin receptor (Homo sapiens) (UniProt P06213); test: Inhibition of INSR at 10 uM; settings: values are per cent of control
[16] = test system: Mast/stem cell growth factor receptor Kit (Homo sapiens), P10721 [V559D,V654A]; test: Inhibition of KIT V559D, V654A mutant at 10 uM; settings: values are per cent of control
[17] = target: MAP kinase-activated protein kinase 2 (Homo sapiens) (UniProt P49137); test: Inhibition of MAPKAPK2 at 10 uM; settings: values are per cent of control
Chain of MAP kinase-activated protein kinase 2 (Homo sapiens) (P49137 whole entry, looked up): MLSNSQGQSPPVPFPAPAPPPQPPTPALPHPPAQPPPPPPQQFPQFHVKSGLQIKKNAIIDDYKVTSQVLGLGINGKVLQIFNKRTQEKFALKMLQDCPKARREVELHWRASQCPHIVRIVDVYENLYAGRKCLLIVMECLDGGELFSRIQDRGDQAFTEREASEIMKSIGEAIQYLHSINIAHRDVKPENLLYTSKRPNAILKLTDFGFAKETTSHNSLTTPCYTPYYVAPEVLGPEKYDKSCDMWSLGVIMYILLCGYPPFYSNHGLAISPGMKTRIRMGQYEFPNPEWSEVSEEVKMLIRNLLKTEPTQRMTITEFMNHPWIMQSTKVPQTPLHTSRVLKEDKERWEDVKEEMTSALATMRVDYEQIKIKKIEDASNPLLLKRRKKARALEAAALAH

[18] = target: MAP kinase-activated protein kinase 5 (Homo sapiens) (UniProt Q8IW41); test: Inhibition of MAPKAPK5 at 10 uM; settings: values are per cent of control
[19] = target: MAP/microtubule affinity-regulating kinase 3 (Homo sapiens) (UniProt P27448); test: Inhibition of MARK3 at 10 uM; settings: values are per cent of control
Chain of MAP/microtubule affinity-regulating kinase 3 (Homo sapiens) (P27448 whole entry, looked up): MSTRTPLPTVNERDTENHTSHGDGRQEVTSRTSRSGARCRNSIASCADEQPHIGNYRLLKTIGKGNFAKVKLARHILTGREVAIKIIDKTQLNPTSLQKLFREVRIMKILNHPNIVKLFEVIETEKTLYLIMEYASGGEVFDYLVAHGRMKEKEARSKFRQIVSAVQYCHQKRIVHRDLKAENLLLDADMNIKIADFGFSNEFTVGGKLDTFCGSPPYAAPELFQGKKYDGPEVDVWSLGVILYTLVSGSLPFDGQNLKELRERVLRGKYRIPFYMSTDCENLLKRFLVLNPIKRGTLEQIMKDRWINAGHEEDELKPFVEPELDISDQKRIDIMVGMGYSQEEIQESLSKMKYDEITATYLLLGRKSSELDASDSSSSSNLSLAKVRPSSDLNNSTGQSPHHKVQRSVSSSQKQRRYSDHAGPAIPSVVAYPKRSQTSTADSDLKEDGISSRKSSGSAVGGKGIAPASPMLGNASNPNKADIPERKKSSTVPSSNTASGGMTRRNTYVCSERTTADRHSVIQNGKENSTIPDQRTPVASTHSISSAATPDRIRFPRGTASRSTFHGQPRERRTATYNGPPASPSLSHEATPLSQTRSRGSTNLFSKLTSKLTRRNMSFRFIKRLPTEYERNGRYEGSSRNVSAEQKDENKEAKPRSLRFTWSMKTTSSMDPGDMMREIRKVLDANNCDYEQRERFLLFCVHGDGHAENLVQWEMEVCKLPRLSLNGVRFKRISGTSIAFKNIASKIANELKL

[20] = target: MAP/microtubule affinity-regulating kinase 4 (Homo sapiens) (UniProt Q96L34); test: Inhibition of MARK4 at 10 uM; settings: values are per cent of control
[21] = target: Serine/threonine-protein kinase MRCK beta (Homo sapiens) (UniProt Q9Y5S2); test: Inhibition of MRCKB at 10 uM
[22] = target: Macrophage-stimulating protein receptor (Homo sapiens) (UniProt Q04912); test: Inhibition of MST1R at 10 uM
[23] = target: Serine/threonine-protein kinase 26 (Homo sapiens) (UniProt Q9P289); test: Inhibition of MST4 at 10 uM
[24] = target: Serine/threonine-protein kinase TAO2 (Homo sapiens) (UniProt Q9UL54); test: Inhibition of TAOK2 at 10 uM
[25] = target: Transient receptor potential cation channel subfamily M member 6 (Homo sapiens) (UniProt Q9BX84); test: Inhibition of TRPM6 at 10 uM; settings: values are per cent of control
[26] = target: Tyrosine-protein kinase receptor TYRO3 (Homo sapiens) (UniProt Q06418); test: Inhibition of TYRO3 at 10 uM; settings: values are per cent of control
[27] = target: Serine/threonine-protein kinase 32C (Homo sapiens) (UniProt Q86UX6); test: Inhibition of YANK3 at 10 uM; settings: values are per cent of control
[28] = target: Cyclin-dependent kinase 16 (Homo sapiens) (UniProt Q00536); test: Inhibition of PCTK1 at 10 uM; settings: values are per cent of control
[29] = target: Phosphorylase b kinase gamma catalytic chain, skeletal muscle/heart isoform (Homo sapiens) (UniProt Q16816); test: Inhibition of PHKG1 at 10 uM
[30] = target: Serine/threonine-protein kinase D2 (Homo sapiens) (UniProt Q9BZL6); test: Inhibition of PRKD2 at 10 uM
[31] = target: Serine/threonine-protein kinase SIK3 (Homo sapiens) (UniProt Q9Y2K2); test: Inhibition of QSK at 10 uM
[32] = target: Receptor-interacting serine/threonine-protein kinase 4 (Homo sapiens) (UniProt P57078); test: Inhibition of RIPK4 at 10 uM
Chain of Receptor-interacting serine/threonine-protein kinase 4 (Homo sapiens) (P57078 whole entry, the tested form may be a part): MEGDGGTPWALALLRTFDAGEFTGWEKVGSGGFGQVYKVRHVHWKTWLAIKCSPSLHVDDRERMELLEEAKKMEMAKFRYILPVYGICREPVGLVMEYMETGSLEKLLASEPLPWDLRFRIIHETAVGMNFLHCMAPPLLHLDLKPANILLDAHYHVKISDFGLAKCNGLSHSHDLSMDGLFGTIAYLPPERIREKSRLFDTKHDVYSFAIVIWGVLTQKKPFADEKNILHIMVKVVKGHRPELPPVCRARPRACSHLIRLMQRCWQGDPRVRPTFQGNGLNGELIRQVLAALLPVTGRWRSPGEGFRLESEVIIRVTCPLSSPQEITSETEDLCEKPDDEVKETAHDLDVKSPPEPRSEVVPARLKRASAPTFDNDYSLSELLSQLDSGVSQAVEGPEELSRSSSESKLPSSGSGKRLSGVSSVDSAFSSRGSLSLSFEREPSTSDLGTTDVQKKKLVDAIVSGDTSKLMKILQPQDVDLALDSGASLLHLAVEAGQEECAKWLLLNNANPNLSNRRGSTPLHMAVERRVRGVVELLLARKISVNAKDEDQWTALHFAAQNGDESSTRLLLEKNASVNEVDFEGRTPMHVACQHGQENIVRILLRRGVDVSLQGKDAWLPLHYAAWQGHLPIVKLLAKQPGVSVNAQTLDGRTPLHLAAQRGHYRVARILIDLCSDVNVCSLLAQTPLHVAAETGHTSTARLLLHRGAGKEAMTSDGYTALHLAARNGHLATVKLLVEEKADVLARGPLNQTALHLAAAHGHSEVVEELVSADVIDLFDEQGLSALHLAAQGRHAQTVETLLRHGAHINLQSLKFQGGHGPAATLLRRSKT

[33] = target: Ribosomal protein S6 kinase alpha-2 (Homo sapiens) (UniProt Q15349); test: Inhibition of RSK3 N-terminal domain1 at 10 uM
[34] = target: NUAK family SNF1-like kinase 2 (Homo sapiens) (UniProt Q9H093); test: Inhibition of SNARK at 10 uM
Chain of NUAK family SNF1-like kinase 2 (Homo sapiens) (Q9H093 whole entry): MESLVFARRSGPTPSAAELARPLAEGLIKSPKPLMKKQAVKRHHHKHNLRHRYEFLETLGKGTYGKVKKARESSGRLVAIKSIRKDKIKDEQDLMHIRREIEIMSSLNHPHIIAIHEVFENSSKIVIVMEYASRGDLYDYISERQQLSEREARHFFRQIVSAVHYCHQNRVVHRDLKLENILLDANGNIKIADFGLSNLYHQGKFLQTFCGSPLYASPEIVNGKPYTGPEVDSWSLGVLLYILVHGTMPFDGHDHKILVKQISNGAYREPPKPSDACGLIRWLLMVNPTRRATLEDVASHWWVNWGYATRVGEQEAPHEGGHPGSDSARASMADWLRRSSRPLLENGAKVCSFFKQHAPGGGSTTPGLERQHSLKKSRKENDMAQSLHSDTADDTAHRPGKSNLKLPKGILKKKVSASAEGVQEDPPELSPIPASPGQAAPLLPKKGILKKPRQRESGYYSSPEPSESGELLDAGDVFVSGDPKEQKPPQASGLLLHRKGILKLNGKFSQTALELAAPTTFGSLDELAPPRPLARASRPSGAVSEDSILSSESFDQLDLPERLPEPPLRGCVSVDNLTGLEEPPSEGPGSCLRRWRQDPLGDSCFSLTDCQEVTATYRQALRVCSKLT

[35] = target: cAMP-dependent protein kinase catalytic subunit alpha (Homo sapiens) (UniProt P17612); test: Inhibition of PKAC-alpha at 10 uM; settings: values are per cent of control
[36] = target: Cyclin-dependent kinase 7 (Homo sapiens) (UniProt P50613); test: Inhibition of CDK7 at 10 uM; values are per cent of control
[37] = target: Mitogen-activated protein kinase kinase kinase 7 (Homo sapiens) (UniProt O43318); test: Inhibition of TAK1 at 10 uM; values are per cent of control
Chain of Mitogen-activated protein kinase kinase kinase 7 (Homo sapiens) (O43318 whole entry): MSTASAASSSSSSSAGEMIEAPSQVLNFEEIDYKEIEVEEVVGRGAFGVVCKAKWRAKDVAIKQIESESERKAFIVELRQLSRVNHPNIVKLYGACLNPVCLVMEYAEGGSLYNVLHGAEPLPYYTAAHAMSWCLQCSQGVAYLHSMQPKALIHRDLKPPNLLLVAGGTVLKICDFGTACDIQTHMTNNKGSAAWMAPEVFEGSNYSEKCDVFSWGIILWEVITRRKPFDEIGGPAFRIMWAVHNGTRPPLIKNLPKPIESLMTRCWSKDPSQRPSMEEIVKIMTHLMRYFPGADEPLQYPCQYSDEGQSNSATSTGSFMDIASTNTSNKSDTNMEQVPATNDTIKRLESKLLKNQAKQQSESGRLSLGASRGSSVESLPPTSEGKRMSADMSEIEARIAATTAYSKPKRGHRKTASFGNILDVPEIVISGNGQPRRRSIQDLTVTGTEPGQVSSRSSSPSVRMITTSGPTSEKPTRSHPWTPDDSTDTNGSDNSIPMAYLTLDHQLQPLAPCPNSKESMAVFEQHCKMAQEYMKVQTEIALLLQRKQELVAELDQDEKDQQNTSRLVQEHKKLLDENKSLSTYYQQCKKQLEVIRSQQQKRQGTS

[38] = target: Serine/threonine-protein kinase LATS1 (Homo sapiens) (UniProt O95835); test: Inhibition of LATS1 at 10 uM; values are per cent of control
[39] = test system: Epidermal growth factor receptor (Homo sapiens), P00533 [G719C]; test: Inhibition of EGFR G719C mutant at 10 uM; values are per cent of control
[40] = test system: Epidermal growth factor receptor (Homo sapiens), P00533 [G719S]; test: Inhibition of EGFR G719S mutant at 10 uM; values are per cent of control
[41] = test system: Epidermal growth factor receptor (Homo sapiens), P00533 [T790M]; test: Inhibition of EGFR T790M mutant at 10 uM; values are per cent of control
[42] = test system: Epidermal growth factor receptor (Homo sapiens), P00533 [UNDEFINED MUTATION]; test: Inhibition of EGFR L747-S752del, P753S mutant at 10 uM; values are per cent of control
Chain of Epidermal growth factor receptor (Homo sapiens), P00533 [UNDEFINED MUTATION] (P00533 whole entry, looked up, stated change not applied): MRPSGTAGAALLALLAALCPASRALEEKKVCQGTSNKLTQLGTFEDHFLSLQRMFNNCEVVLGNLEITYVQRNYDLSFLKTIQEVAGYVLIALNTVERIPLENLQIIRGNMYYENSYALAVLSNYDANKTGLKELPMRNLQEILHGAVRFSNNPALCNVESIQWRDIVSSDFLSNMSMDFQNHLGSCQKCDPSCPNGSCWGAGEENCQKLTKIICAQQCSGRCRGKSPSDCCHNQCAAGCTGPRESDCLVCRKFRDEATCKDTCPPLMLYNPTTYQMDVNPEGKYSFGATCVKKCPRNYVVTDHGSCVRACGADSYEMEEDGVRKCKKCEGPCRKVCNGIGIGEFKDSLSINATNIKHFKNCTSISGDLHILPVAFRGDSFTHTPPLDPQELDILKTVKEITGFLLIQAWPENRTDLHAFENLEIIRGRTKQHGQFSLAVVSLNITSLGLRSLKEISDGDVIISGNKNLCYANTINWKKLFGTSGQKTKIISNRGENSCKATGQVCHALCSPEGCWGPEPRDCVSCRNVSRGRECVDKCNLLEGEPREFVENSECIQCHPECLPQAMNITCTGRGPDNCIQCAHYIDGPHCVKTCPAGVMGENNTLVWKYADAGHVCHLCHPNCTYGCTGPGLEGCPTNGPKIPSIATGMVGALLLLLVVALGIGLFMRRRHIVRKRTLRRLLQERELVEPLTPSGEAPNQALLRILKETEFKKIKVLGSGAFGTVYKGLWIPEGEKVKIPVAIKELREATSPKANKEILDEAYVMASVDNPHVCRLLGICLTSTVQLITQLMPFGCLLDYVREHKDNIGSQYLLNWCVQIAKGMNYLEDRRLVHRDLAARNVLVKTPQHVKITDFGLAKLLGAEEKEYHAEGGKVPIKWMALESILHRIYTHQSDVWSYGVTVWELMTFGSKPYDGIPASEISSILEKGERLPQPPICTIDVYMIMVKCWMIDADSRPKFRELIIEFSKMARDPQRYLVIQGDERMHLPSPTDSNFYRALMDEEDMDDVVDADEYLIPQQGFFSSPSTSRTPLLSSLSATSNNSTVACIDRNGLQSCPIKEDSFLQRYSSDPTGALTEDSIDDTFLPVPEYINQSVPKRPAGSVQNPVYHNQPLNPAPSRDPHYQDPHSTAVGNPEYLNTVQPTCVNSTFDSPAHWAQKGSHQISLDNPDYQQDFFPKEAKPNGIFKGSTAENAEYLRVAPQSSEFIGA

CCN1CCN(Cc2ccc(NC(=O)c3ccc(C)c(C#Cc4cnc5[nH]ccc5c4)c3)cc2C(F)(F)F)CC1
EC50 [1]: < 1 nM
residual binding, % of control [2]: 4.9%
residual binding, % of control [3]: 1.1%
residual binding, % of control [4]: 0.2%
residual binding, % of control [5]: 0.9%
residual binding, % of control [6]: 100%
residual binding, % of control [7]: 89%
residual binding, % of control [8]: 100%
residual binding, % of control [9]: 100%
residual binding, % of control [10]: 2.7%
residual binding, % of control [11]: 59%
residual binding, % of control [12]: 0%
residual binding, % of control [13]: 88%
residual binding, % of control [14]: 96%
residual binding, % of control [15]: 53%
residual binding, % of control [16]: 1.4%
residual binding, % of control [17]: 100%
residual binding, % of control [18]: 98%
residual binding, % of control [19]: 42%
residual binding, % of control [20]: 85%
inhibition [21]: 67%
inhibition [22]: 76%
inhibition [23]: 11%
inhibition [24]: 0%
residual binding, % of control [25]: 64%
residual binding, % of control [26]: 38%
residual binding, % of control [27]: 83%
residual binding, % of control [28]: 46%
inhibition [29]: 100%
inhibition [30]: 13%
inhibition [31]: 77%
inhibition [32]: 8%
inhibition [33]: 0.7%
inhibition [34]: 84%
residual binding, % of control [35]: 27%
level, % of control [36]: 4%
% of control [37]: 0.25%
level, % of control [38]: 3.4%
level, % of control [39]: 0%
level, % of control [40]: 0.15%
level, % of control [41]: 13%
level, % of control [42]: 0.8%

CCN1CCN(Cc2ccc(NC(=O)c3ccc(C)c(C#Cc4cccnc4)c3)cc2C(F)(F)F)CC1
EC50 [1]: < 1 nM
residual binding, % of control [2]: 4%
residual binding, % of control [3]: 2.6%
residual binding, % of control [4]: 0.7%
residual binding, % of control [5]: 2.6%
residual binding, % of control [6]: 100%
residual binding, % of control [7]: 88%
residual binding, % of control [8]: 100%
residual binding, % of control [9]: 60%
residual binding, % of control [10]: 0.25%
residual binding, % of control [11]: 75%
residual binding, % of control [12]: 0%
residual binding, % of control [13]: 100%
residual binding, % of control [14]: 80%
residual binding, % of control [15]: 58%
residual binding, % of control [16]: 4.2%
residual binding, % of control [17]: 85%
residual binding, % of control [18]: 95%
residual binding, % of control [19]: 69%
residual binding, % of control [20]: 87%
inhibition [21]: 88%
inhibition [22]: 68%
inhibition [23]: 21%
inhibition [24]: 0.15%
residual binding, % of control [25]: 49%
residual binding, % of control [26]: 100%
residual binding, % of control [27]: 75%
residual binding, % of control [28]: 8.4%
inhibition [29]: 88%
inhibition [30]: 56%
inhibition [31]: 70%
inhibition [32]: 48%
inhibition [33]: 9.5%
inhibition [34]: 99%
residual binding, % of control [35]: 8.4%
level, % of control [36]: 1.6%
% of control [37]: 0.2%
level, % of control [38]: 20%
level, % of control [39]: 0.75%
level, % of control [40]: 2.4%
level, % of control [41]: 24%
level, % of control [42]: 0.9%
